{"source": "patent US20150307460A1", "about": "“Substituted Triazoles and Imidazoles and Their Use as Fungicides” (BASF SE, priority 2012, published 2015)", "key": {"[1]": {"system": "Botrytis cinerea", "assay": "Microtiterplate test: activity against the grey mold Botrytis cinerea (Botrci), also comparison test CM1", "assay_type": "cell-based", "details": "7 days after inoculation, control = 100%"}, "[2]": {"system": "Septoria tritici", "assay": "Microtest: activity against leaf blotch on wheat caused by Septoria tritici (Septtr), also comparison test CM3", "assay_type": "cell-based", "details": "7 days after inoculation, control = 100%"}, "[3]": {"system": "Phytophthora infestans", "assay_type": "cell-based", "details": "7 days after inoculation, control = 100%"}, "[4]": {"system": "Puccinia recondita", "assay": "Green house CG1: preventative control of brown rust on wheat caused by Puccinia recondita (Puccrt P1)", "assay_type": "in vivo", "details": "150 ppm spray, wheat seedlings, % diseased leaf area, untreated control 90", "experimental": "The spray solutions were prepared in several steps: The stock solution were prepared: a mixture of acetone and/or dimethylsulfoxide and the wetting agent/emulsifier Wettol, which is based on ethoxylated alkylphenoles, in a relation (volume) solvent-emulsifier of 99 to 1 was added to 25 mg of the compound to give a total of 5 ml. Water was then added to total volume of 100 ml. This stock solution was diluted with the described solvent-emulsifier-water mixture to the given concentration. CG1 Preventative Control of Brown Rust on Wheat Caused by Puccinia recondita (Puccrt P1) The first two developed leaves of pot-grown wheat seedling were sprayed to run-off with an aqueous suspension, containing the concentration of active ingredient or their mixture as described below. The next day the plants were inoculated with spores of Puccinia recondita. […] The extent of fungal attack on the leaves was visually assessed as % diseased leaf area."}}, "data": [{"smiles": "OC1(c2cccc(-c3ccc(Cl)cc3)c2)CCCCC1n1cncn1", "note": "(stereo not drawn) [Compound I-19]", "values": [{"measurement": "CM1 Growth (%) at 8 ppm Botrci", "setting": "[1]", "value": 0, "unit": "%"}, {"measurement": "CM3 Growth (%) at 8 ppm Septtr", "setting": "[2]", "value": 1, "unit": "%"}, {"measurement": "CM2 Growth (%) at 31 ppm Phytin", "setting": "[3]", "value": 73, "unit": "%"}]}, {"smiles": "OC1(c2ccc(-c3ccc(F)cc3)cc2)CCCCCC1n1cncn1", "note": "(stereo not drawn)", "values": [{"measurement": "CG1 Disease (%) at 150 ppm Puccrt P1", "setting": "[4]", "value": 10, "unit": "%"}]}, {"smiles": "OC1(c2ccc(Cl)cc2)CCCCCC1n1cncn1", "note": "(stereo not drawn) [reference compound]", "values": [{"measurement": "CG1 Disease (%) at 150 ppm Puccrt P1", "setting": "[4]", "value": 30, "unit": "%"}]}, {"smiles": "OC1(c2ccccc2)CCCCC1n1cncn1", "note": "(stereo not drawn) [Example No. 25 of EP 0 152 031, reference compound]", "values": [{"measurement": "CM1 Growth (%) at 8 ppm Botrci", "setting": "[1]", "value": 70, "unit": "%"}, {"measurement": "CM3 Growth (%) at 8 ppm Septtr", "setting": "[2]", "value": 80, "unit": "%"}, {"measurement": "CM2 Growth (%) at 31 ppm Phytin", "setting": "[3]", "value": 94, "unit": "%"}]}, {"smiles": "OC1(c2ccc(F)cc2)CCCCC1n1cncn1", "note": "(stereo not drawn) [Example No. 28 of EP 0 152 031, reference compound]", "values": [{"measurement": "CM1 Growth (%) at 8 ppm Botrci", "setting": "[1]", "value": 40, "unit": "%"}, {"measurement": "CM3 Growth (%) at 8 ppm Septtr", "setting": "[2]", "value": 83, "unit": "%"}, {"measurement": "CM2 Growth (%) at 31 ppm Phytin", "setting": "[3]", "value": 93, "unit": "%"}]}, {"smiles": "OC1(c2ccc(-c3ccccc3)cc2)CCCCC1n1cncn1", "note": "(stereo not drawn) [Compound I-12]", "values": [{"measurement": "CM1 Growth (%) at 8 ppm Botrci", "setting": "[1]", "value": 0, "unit": "%"}, {"measurement": "CM3 Growth (%) at 8 ppm Septtr", "setting": "[2]", "value": 1, "unit": "%"}, {"measurement": "CM2 Growth (%) at 31 ppm Phytin", "setting": "[3]", "value": 41, "unit": "%"}]}, {"smiles": "OC1(c2ccc(Oc3ccc(Cl)cc3)cc2)CCCCC1n1cncn1", "note": "(stereo not drawn) [Compound I-11, 1-[4-(4-chlorophenoxyl)phenyl]-2-(1,2,4-triazol-1-yl)cyclohexanol]", "values": [{"measurement": "CM1 Growth (%) at 8 ppm Botrci", "setting": "[1]", "value": 0, "unit": "%"}, {"measurement": "CM3 Growth (%) at 8 ppm Septtr", "setting": "[2]", "value": 0, "unit": "%"}, {"measurement": "CM2 Growth (%) at 31 ppm Phytin", "setting": "[3]", "value": 57, "unit": "%"}]}, {"smiles": "OC1(c2ccc(-c3ccc(Cl)cc3)cc2)CCCCC1n1cncn1", "note": "(stereo not drawn) [Compound I-15]", "values": [{"measurement": "CM1 Growth (%) at 8 ppm Botrci", "setting": "[1]", "value": 0, "unit": "%"}, {"measurement": "CM3 Growth (%) at 8 ppm Septtr", "setting": "[2]", "value": 2, "unit": "%"}]}, {"smiles": "OC1(c2ccc(Cl)cc2)CCCCC1n1cncn1", "note": "(stereo not drawn) [reference compound]", "values": [{"measurement": "CM3 Growth (%) at 8 ppm Septtr", "setting": "[2]", "value": 52, "unit": "%"}, {"measurement": "CM2 Growth (%) at 31 ppm Phytin", "setting": "[3]", "value": 78, "unit": "%"}]}]}
